Consider nine molecules from ChEMBL document CHEMBL3046754, “New brassinosteroid analogs having nitrogenated functionalities at C3 to provide more information about the brassinosteroidreceptor interaction” (2004).

Holding throughout (assay type): functional
The subject of test [1] is Oryza sativa. As to the kind of experiment: Growth regulating activity in Oryza sativa (rice) Bahia cultivar seedlings assessed as interior angle between leaf lamina of second leaf and its leaf sheath at 0.5 ug/plant applied onto second lamina joint of plant sheath measured after 2 days by Oryza sativa lamina inclination test.
For test [2], the system named is Oryza sativa. Description: Growth regulating activity in Oryza sativa (rice) Bahia cultivar seedlings assessed as interior angle between leaf lamina of second leaf and its leaf sheath at 0.1 ug/plant applied onto second lamina joint of plant sheath measured after 2 days by Oryza sativa lamina inclination test.
The test system of test [3] is Oryza sativa. Description: Growth regulating activity in Oryza sativa (rice) Bahia cultivar seedlings assessed as interior angle between leaf lamina of second leaf and its leaf sheath at 0.05 ug/plant applied onto second lamina joint of plant sheath measured after 2 days by Oryza sativa lamina inclination test.
The test system of test [4] is Oryza sativa. As to the kind of experiment: Growth regulating activity in Oryza sativa (rice) Bahia cultivar seedlings assessed as interior angle between leaf lamina of second leaf and its leaf sheath at 1 ug/plant applied onto second lamina joint of plant sheath measured after 2 days by Oryza sativa lamina inclination test.
Test [5] deals with Oryza sativa. As to the kind of experiment: Growth regulating activity in Oryza sativa (rice) Bahia cultivar seedlings assessed as interior angle between leaf lamina of second leaf and its leaf sheath at 0.01 ug/plant applied onto second lamina joint of plant sheath measured after 2 days by Oryza sativa lamina inclination test.
Test [6] deals with Oryza sativa. As to the kind of experiment: Growth regulating activity in Oryza sativa (rice) Bahia cultivar seedlings assessed as interior angle between leaf lamina of second leaf and its leaf sheath at 0.02 ug/plant applied onto second lamina joint of plant sheath measured after 2 days by Oryza sativa lamina inclination test.

With `CC[C@@H](C(C)C)[C@@H](O)[C@H](O)[C@@H](C)[C@H]1CC[C@H]2[C@@H]3CC(=O)[C@H]4C[C@H](O)CC[C@]4(C)[C@H]3CC[C@]12C`, the Activity in the test on Oryza sativa [1] is on record as 76 degree; in the test on Oryza sativa [2], 59 degree; in the test on Oryza sativa [3], 65 degree; in the test with Oryza sativa [4] it was 85 degree; in the test with Oryza sativa [5], 46 degree.
With `CC[C@@H](C(C)C)[C@@H](O)[C@H](O)[C@@H](C)[C@H]1CC[C@H]2[C@@H]3COC(=O)[C@H]4C[C@H](N=[N+]=[N-])CC[C@]4(C)[C@H]3CC[C@]12C`, the Activity was found to be 94 degree in the test with Oryza sativa [1]; 44 degree in the test with Oryza sativa [6]; 86 degree in the test on Oryza sativa [2]; 74 degree in the test on Oryza sativa [3]; 106 degree with Oryza sativa [4]; 37 degree with Oryza sativa [5].
With `CC[C@@H](C(C)C)[C@H](O)[C@@H](O)[C@@H](C)[C@H]1CC[C@H]2[C@@H]3CC(=O)[C@H]4C[C@H](N=[N+]=[N-])CC[C@]4(C)[C@H]3CC[C@]12C`, the Activity with Oryza sativa [4] was 1 degree.
Turning to `CC[C@@H](C(C)C)[C@H](O)[C@@H](O)[C@@H](C)[C@H]1CC[C@H]2[C@@H]3CC(=O)[C@H]4C[C@H](N)CC[C@]4(C)[C@H]3CC[C@]12C`, the Activity in the test on Oryza sativa [4] is given as 3 degree.
Turning to `CC[C@@H](C(C)C)[C@@H](O)[C@H](O)[C@@H](C)[C@H]1CC[C@H]2[C@@H]3CC(=O)[C@H]4C[C@H](N=[N+]=[N-])CC[C@]4(C)[C@H]3CC[C@]12C`, the Activity with Oryza sativa [1] stood at 64 degree; with Oryza sativa [2], 30 degree; in the test with Oryza sativa [3] it was 24 degree; in the test on Oryza sativa [4], 75 degree; in the test with Oryza sativa [5], 17 degree.
As to `CC[C@@H](C(C)C)[C@@H](O)[C@H](O)[C@@H](C)[C@H]1CC[C@H]2[C@@H]3CC(=O)[C@H]4C[C@H](N)CC[C@]4(C)[C@H]3CC[C@]12C`, in the test on Oryza sativa [4], the Activity was 23 degree.
`CC[C@@H](C(C)C)[C@H](O)[C@@H](O)[C@@H](C)[C@H]1CC[C@H]2[C@@H]3COC(=O)[C@H]4C[C@H](N)CC[C@]4(C)[C@H]3CC[C@]12C`: the Activity in the test with Oryza sativa [4] is on record as 5 degree.
Consider `CC[C@@H](C(C)C)[C@@H](O)[C@H](O)[C@@H](C)[C@H]1CC[C@H]2[C@@H]3COC(=O)[C@H]4C[C@H](N)CC[C@]4(C)[C@H]3CC[C@]12C`, for which the Activity is on record as 31 degree in the test on Oryza sativa [1], 16 degree with Oryza sativa [2] and 55 degree with Oryza sativa [4].
Turning to `CC[C@@H](C(C)C)[C@H](O)[C@@H](O)[C@@H](C)[C@H]1CC[C@H]2[C@@H]3COC(=O)[C@H]4C[C@H](N=[N+]=[N-])CC[C@]4(C)[C@H]3CC[C@]12C`, the Activity with Oryza sativa [1] is 17 degree; in the test with Oryza sativa [4], 48 degree.
